Source: US20110039824A1, “1,2,3,6-tetrahydroazepino[4,5-b]indole-5-carboxylate nuclear receptor inhibitors” (Wyeth, priority 2008, published 2011)

Assays:
[1] = molecular target: T1, Progesterone Receptor (PR) (Homo sapiens, UniProt P06401); experiment: Progesterone receptor (PR) antagonism, alkaline phosphatase assay in T47D cells; assay type: cell-based; conditions: percent inhibition @ 10 μM vs 1 nM progesterone
T1 sequence (P06401 679-933 limits assumed): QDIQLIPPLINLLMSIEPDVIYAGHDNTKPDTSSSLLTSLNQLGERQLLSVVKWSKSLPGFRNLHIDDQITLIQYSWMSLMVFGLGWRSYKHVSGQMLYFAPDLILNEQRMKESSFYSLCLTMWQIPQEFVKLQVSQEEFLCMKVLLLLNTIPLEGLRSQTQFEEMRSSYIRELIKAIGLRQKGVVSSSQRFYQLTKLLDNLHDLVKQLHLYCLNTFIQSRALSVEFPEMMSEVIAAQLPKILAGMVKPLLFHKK
Procedure: DMEM:F12 (1:1) (GIBCO, BRL) supplemented with 5% (v/v) charcoal stripped fetal bovine serum (not heat-inactivated), 100 U/ml penicillin, 100 jig/ml streptomycin, and 2 mM GlutaMax (GIBCO, BRL).
I. 0.1M Tris-HCl, pH 9.8, containing 0.2% Triton X-100 II. 0.1 M Tris-HCl, pH 9.8, containing 4 mM p-nitrophenyl phosphate (Sigma).
Frozen T47D cells were thawed in a 37° C. water bath and diluted to 280,000 cells/ml in culture medium. To each well in a 96-well plate (Falcon, Becton Dickinson Labware), 180 μl of diluted cell suspension was added. Twenty μl of reference or test compounds diluted in the culture medium were then added to each well. When testing for progestin antagonist activity, reference antiprogestins or test compounds were added in the presence of 1 nM progesterone. The cells were incubated at 37° C. in a 5% CO2/humidified atmosphere for 24 hours.
At the end of treatment, the medium was removed from the plate. Fifty μl of assay buffer I was added to each well. The plates were shaken in a titer plate shaker for […]. Then 150 μl of assay buffer II was added to each well. Optical density measurements were taken at 5 min intervals for 30 min at a test wavelength of 405 nm.

[2] = Solubility in 2% Tween/0.5% MC aq.; assay type: physicochemical
PAMPA permeability = assay type: in vitro ADME
Caco2 = Caco2 permeability; assay type: in vitro ADME
LDLR KO Mouse Model = experiment: Mouse serum triglyceride (TG) and cholesterol levels in LDLR -/- mice; assay type: in vivo; conditions: daily oral gavage 7 days
Procedure: Eight-week old LDLR −/−mice were purchased from Jackson Laboratories and maintained on a chow diet. Some LDLR −/−mice were fed a western diet (AlN-76A; Purina Test Diets) as indicated. All mice were treated by daily oral gavage with vehicle or varying concentrations of compound for 7 days. On the last day after the final dose, the food was removed to allow a 3 hr fast and serum was harvested for analysis. Serum TG and cholesterol levels were determined using a Roche 912 clinical chemistry analyzer and expressed as mg/dL.

hERG = hERG (Homo sapiens, UniProt Q12809); experiment: hERG function; conditions: values printed as concentrations; read-out: hERG function (% Inh. @ 10 μM)
hERG, sequence (Q12809 whole entry): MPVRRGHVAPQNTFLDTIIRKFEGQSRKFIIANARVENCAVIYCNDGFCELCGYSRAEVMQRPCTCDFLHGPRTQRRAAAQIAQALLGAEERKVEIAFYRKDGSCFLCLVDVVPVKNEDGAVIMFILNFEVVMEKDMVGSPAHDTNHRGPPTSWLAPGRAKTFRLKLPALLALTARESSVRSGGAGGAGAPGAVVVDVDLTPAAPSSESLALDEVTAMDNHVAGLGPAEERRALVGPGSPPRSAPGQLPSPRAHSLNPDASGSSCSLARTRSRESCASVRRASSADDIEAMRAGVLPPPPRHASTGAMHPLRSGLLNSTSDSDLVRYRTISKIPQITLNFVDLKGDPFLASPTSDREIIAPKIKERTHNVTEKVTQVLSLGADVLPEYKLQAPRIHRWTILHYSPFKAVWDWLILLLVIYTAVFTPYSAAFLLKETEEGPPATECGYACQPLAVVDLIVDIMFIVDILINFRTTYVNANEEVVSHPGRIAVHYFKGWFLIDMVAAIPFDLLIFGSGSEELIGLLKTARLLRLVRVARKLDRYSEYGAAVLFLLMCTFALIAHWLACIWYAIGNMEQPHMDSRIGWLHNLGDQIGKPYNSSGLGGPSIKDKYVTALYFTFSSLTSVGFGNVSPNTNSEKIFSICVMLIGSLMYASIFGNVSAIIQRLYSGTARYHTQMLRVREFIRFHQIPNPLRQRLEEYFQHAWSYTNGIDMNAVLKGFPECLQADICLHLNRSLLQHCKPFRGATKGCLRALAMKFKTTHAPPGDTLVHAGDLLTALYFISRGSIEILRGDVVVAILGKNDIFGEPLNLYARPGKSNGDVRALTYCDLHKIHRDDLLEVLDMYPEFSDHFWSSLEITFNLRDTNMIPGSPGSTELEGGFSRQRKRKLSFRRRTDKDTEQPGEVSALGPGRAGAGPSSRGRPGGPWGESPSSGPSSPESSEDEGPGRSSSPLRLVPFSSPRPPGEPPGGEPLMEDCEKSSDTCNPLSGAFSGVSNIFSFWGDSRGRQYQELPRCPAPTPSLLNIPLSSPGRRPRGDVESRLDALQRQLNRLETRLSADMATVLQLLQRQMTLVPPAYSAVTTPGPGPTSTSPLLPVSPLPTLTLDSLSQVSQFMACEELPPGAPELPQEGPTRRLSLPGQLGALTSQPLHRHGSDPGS

HLM stability = assay type: in vitro ADME; conditions: human, liver microsomes; read-out: HLM (t1/2)
CYP450 3A4 = CYP450 3A4 (Homo sapiens, UniProt P08684); experiment: CYP450 3A4 inhibition; assay type: in vitro ADME
CYP450 3A4, sequence (P08684 whole entry): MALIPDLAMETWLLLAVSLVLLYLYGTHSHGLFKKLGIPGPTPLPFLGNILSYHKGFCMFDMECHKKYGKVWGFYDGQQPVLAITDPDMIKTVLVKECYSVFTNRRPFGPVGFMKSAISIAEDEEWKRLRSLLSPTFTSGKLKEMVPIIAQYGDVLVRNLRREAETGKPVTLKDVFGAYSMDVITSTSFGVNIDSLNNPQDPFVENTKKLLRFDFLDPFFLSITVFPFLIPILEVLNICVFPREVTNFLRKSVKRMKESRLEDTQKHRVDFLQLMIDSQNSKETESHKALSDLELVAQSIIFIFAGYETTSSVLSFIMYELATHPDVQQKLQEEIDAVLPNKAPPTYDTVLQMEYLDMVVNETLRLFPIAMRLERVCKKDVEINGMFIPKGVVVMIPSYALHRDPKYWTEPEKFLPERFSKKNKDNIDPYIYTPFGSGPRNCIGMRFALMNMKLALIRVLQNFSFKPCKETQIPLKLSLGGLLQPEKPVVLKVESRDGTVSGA

CYP450 2D6 = CYP450 2D6 (Homo sapiens, UniProt P10635); experiment: CYP450 2D6 inhibition; assay type: in vitro ADME
CYP450 2D6, sequence (P10635 whole entry): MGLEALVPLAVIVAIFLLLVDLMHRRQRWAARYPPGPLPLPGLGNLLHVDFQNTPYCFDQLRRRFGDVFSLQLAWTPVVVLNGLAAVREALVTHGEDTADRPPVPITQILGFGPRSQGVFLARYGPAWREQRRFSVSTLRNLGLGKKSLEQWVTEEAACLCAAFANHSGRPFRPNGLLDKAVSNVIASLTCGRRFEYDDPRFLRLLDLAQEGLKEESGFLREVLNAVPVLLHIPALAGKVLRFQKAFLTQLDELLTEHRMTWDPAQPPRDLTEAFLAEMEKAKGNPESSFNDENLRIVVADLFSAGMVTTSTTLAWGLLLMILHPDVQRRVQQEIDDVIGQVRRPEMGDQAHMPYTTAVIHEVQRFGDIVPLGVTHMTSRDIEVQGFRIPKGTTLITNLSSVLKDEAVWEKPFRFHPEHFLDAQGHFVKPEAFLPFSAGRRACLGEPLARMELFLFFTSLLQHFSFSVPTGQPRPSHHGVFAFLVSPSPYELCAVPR

CYP450 2C9 = CYP450 2C9 (Homo sapiens, UniProt P11712); experiment: CYP450 2C9 inhibition; assay type: in vitro ADME
CYP450 2C9, sequence (P11712 whole entry): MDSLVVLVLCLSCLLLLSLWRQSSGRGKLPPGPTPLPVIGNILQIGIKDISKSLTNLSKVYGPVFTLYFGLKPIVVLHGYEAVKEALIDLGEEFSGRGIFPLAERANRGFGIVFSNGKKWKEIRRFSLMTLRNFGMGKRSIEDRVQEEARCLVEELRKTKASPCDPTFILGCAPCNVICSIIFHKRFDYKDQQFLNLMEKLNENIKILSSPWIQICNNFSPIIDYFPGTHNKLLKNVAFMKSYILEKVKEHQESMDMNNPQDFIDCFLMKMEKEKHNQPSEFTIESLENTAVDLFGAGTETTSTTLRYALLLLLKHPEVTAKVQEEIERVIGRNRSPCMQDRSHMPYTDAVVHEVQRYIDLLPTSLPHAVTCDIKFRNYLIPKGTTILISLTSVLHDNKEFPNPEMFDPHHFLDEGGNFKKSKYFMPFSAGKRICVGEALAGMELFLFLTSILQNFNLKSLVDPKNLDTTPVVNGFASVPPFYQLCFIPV

[3] = Pharmacokinetics (bioavailability, half life); assay type: in vivo
Gal4/hFXR fusion protein = molecular target: T2, Gal4/hFXR fusion protein (Homo sapiens, UniProt Q96RI1); experiment: Gal4/hFXR fusion protein agonist activity in human 293 cells (luciferase); assay type: cell-based; set-up: rows headed: hFXR agonist EC50; hFXR agonist eff. @ 30 μM; other: efficacy @ 30 μM; conditions: efficacy @ 30 μM
T2 sequence (Q96RI1 262-486 limits assumed): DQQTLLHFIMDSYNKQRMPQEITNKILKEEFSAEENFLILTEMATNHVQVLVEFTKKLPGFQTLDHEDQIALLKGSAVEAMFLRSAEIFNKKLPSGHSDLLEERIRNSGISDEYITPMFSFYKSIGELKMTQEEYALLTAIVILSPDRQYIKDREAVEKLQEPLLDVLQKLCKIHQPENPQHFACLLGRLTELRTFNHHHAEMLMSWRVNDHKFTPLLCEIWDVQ
Procedure: • Assay Medium: Phenol red free high glucose Dulbecco's modified Eagle's medium with sodium pyruvate (Cellgro, #17-205-CV) supplemented with 10% fetal bovine serum (Gibco, 16000-044), 1% glutamax (Gibco, 35050-061), 100 units/mL penicillin and 100 μg/mL streptomycin (Gibco, 15140-122). • Culturplate-96 (PerkinElmer, 6005688) • Lysis buffer (Promega, E3971) • Luciferase assay reagent (Promega E1483)
• 1. Compounds to be tested were prepared as 2× stocks in assay medium. • 2. […] The supernatant was removed and the cells were resuspended in 1 ml assay medium. The cells were counted and diluted in assay medium to 200,000 cells per ml. The cells were then plated at 10,000 cells per well in Culturplate-96 plates in 50 uL assay medium. The cells were incubated at 37° C. for approximately 1 hour. • 3. […] All assays included 1 uM GW4064 (Maloney et al., J. Med. Chem., 2000, 43(16), 2971-2974) as a reference standard. • 4. Cells were incubated for 24 hours at 37° C.
• 5. […] The plates were analyzed for luciferase activity with luciferase assay reagent (Promega E1483). Plates were read on Victor^3V instrument using the protocol “Shuguang Luciferase assay” (dispense volume=100 uL, plate type=“Packard Viewplate”, measurement height=8 mm from bottom of plate, 5 second read per well).
• 1. For agonist single point screening, data were analyzed in Excel. […]

CC(C)OC(=O)C1=CN(C(=O)c2ccc(OCCCN3CCOCC3)cc2)CC(C)(C)c2c1[nH]c1cc(F)ccc21 [Example 30, Isopropyl 8-fluoro-1,1-dimethyl-3-[4-(3-morpholin-4-ylpropoxy)benzoyl]-1,2,3,6-tetrahydroazepino[4,5-b]indole-5-carboxylate]
PR Antagonism (Alk. Phos. Assay @ 10 μM) [1]: 95%
2% Tween/0.5% MC aq. sol. (mg/mL) [2]: 0.20 mg/mL
2% Tween/0.5% MC aq. sol. (μM) [2]: 355.0 µM
PAMPA Permeability (Pe × 10^−6) (PAMPA permeability): 0.66 × 10^−6
Transport mechanism (Caco2): passive
Caco2 Permeability (Pe × 10^−6) A-B (Caco2): 0.8 × 10^−6
Caco2 Permeability (Pe × 10^−6) B-A (Caco2): 0.8 × 10^−6
Reduction of Total Cholesterol in a LDLR KO Mouse Model (Female) @ 10 mpk (LDLR KO Mouse Model): 60%
Reduction of Triglycerides in a LDLR KO Mouse Model (Female) @ 10 mpk (LDLR KO Mouse Model): 65%
Reduction of Total Cholesterol in a LDLR KO Mouse Model (Male) @ 10 mpk (LDLR KO Mouse Model): 74%
Reduction of Triglycerides in a LDLR KO Mouse Model (Male) @ 10 mpk (LDLR KO Mouse Model): 78%

CC(C)OC(=O)C1=CN(C(=O)c2ccc(F)c(F)c2)CC(C)(C)c2c1[nH]c1ccccc21 [Reference Compound 2, isopropyl-3-(3,4-difluorobenzoyl)-1,1-dimethyl-1,2,3,6-tetrahydroazepino[4,5-b]indole-5-carboxylate]
PR Antagonism (Alk. Phos. Assay @ 10 μM) [1]: 44% @ 10 μM
IC50 (hERG): > 10 µM
2% Tween/0.5% MC aq. sol. (mg/mL) [2]: 0.01 mg/mL
2% Tween/0.5% MC aq. sol. (μM) [2]: 22.0 µM
PAMPA Permeability (Pe × 10^−6) (PAMPA permeability): 0 × 10^−6
Transport mechanism (Caco2): passive
Caco2 Permeability (Pe × 10^−6) A-B (Caco2): 0.5 × 10^−6
Caco2 Permeability (Pe × 10^−6) B-A (Caco2): 0.5 × 10^−6
Caco2 Permeability, class (Caco2; class in words): Low
half-life (HLM stability): 18 min
CYP450 3A4 % I @ 3 μM (CYP450 3A4): 43%
CYP450 2D6 % I @ 3 μM (CYP450 2D6): 5%
CYP450 2C9 % I @ 3 μM (CYP450 2C9): 24%
Bioavailability (dosed in aqueous MC/Tween) [3]: poor
Reduction of Total Cholesterol in a LDLR KO Mouse Model (Female) @ 10 mpk (LDLR KO Mouse Model): 36%
Reduction of Triglycerides in a LDLR KO Mouse Model (Female) @ 10 mpk (LDLR KO Mouse Model): 39%
Reduction of Total Cholesterol in a LDLR KO Mouse Model (Male) @ 10 mpk (LDLR KO Mouse Model): 47%
Reduction of Triglycerides in a LDLR KO Mouse Model (Male) @ 10 mpk (LDLR KO Mouse Model): 71%
hFXR agonist eff. @ 30 μM (Gal4/hFXR fusion protein): 179%

CC(C)OC(=O)C1=CN(C(=O)c2ccc(OCCCN3CCOCC3)cc2)CC(C)(C)c2c1[nH]c1ccccc21 [Reference Compound 1, 1-methylethyl-1,1-dimethyl-3-({4-[(3-morpholin-4-ylpropyl)oxy]phenyl}carbonyl)-1,2,3,6-tetrahydroazepino[4,5-b]indole-5-carboxylate]
PR Antagonism (Alk. Phos. Assay @ 10 μM) [1]: 90%
2% Tween/0.5% MC aq. sol. (mg/mL) [2]: 0.19 mg/mL
2% Tween/0.5% MC aq. sol. (μM) [2]: 332.0 µM
PAMPA Permeability (Pe × 10^−6) (PAMPA permeability): 0 × 10^−6
Transport mechanism (Caco2): passive
Reduction of Total Cholesterol in a LDLR KO Mouse Model (Female) @ 10 mpk (LDLR KO Mouse Model): 40%
Reduction of Triglycerides in a LDLR KO Mouse Model (Female) @ 10 mpk (LDLR KO Mouse Model): 25%
Reduction of Total Cholesterol in a LDLR KO Mouse Model (Male) @ 10 mpk (LDLR KO Mouse Model): 49%
Reduction of Triglycerides in a LDLR KO Mouse Model (Male) @ 10 mpk (LDLR KO Mouse Model): 59%
